From PubChem BioAssay (NCI)
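Compound exposure: 48 hours, 5 concentrations, 96-well plates. At the GI50, growth is halved. TGI marks complete inhibition of growth.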

Assays:
Assay in all cases: NCI tumour cell line growth inhibition, 48 h
[1] = test system: SF-268 CNS
[2] = test system: UACC-62 melanoma
[3] = test system: HOP-62 NSCLC
[4] = test system: LOX IMVI melanoma
[5] = test system: HCT-116 colon
[6] = test system: KM12 colon
[7] = test system: HCC-2998 colon
[8] = test system: SR leukemia
[9] = test system: DU-145 prostate
[10] = test system: OVCAR-4 ovarian
[11] = test system: SK-OV-3 ovarian
[12] = test system: A549 NSCLC
[13] = test system: SN12C renal
[14] = test system: PC-3 prostate
[15] = test system: HOP-92 NSCLC
[16] = test system: OVCAR-8 ovarian
[17] = test system: NCI-H460 lung
[18] = test system: SK-MEL-5 melanoma
[19] = test system: NCI-H522 lung
[20] = test system: MDA-MB-435
[21] = test system: SK-MEL-28 melanoma
[22] = test system: SW-620 colon
[23] = test system: OVCAR-3 ovarian
[24] = test system: MCF7 breast
[25] = test system: UACC-257 melanoma
[26] = test system: T-47D breast
[27] = test system: HL-60(TB) leukemia
[28] = test system: K-562 leukemia
[29] = test system: COLO 205 colon
[30] = test system: BT-549 breast
[31] = test system: EKVX NSCLC
[32] = test system: SF-295 CNS
[33] = test system: HCT-15 colon
[34] = test system: NCI/ADR-RES ovarian
[35] = test system: SNB-19 CNS
[36] = test system: MDA-MB-231 breast
[37] = test system: HT29 colon
[38] = test system: SF-539 CNS
[39] = test system: SNB-75 CNS
[40] = test system: IGROV1 ovarian
[41] = test system: U251 CNS
[42] = test system: MOLT-4 leukemia
[43] = test system: OVCAR-5 ovarian
[44] = test system: TK-10 renal
[45] = test system: CCRF-CEM leukemia
[46] = test system: NCI-H23 lung
[47] = test system: M14 melanoma
[48] = test system: 786-0 renal
[49] = test system: UO-31 renal
[50] = test system: CAKI-1 renal
[51] = test system: HS 578T breast
[52] = test system: RPMI-8226 leukemia
[53] = test system: SK-MEL-2 melanoma
[54] = test system: ACHN renal
[55] = test system: RXF 393 renal
[56] = test system: NCI-H226 lung

c1cc2sc1CSCCSCCSC2
TGI [1]: > 100 µM
TGI [2]: > 100 µM
TGI [3]: > 100 µM
TGI [4]: > 100 µM
TGI [5]: > 100 µM
TGI [6]: > 100 µM
TGI [7]: > 100 µM
TGI [8]: > 100 µM
TGI [9]: > 100 µM
TGI [10]: > 100 µM
TGI [11]: > 100 µM
TGI [12]: > 100 µM
TGI [13]: > 100 µM
TGI [14]: > 100 µM
TGI [15]: > 100 µM
TGI [16]: > 100 µM
TGI [17]: > 100 µM
TGI [18]: > 100 µM
TGI [19]: > 100 µM
TGI [20]: > 100 µM
TGI [21]: > 100 µM
TGI [22]: > 100 µM
TGI [23]: > 100 µM
TGI [24]: > 100 µM
TGI [25]: > 100 µM
TGI [26]: > 100 µM
TGI [27]: > 100 µM
TGI [28]: > 100 µM
TGI [29]: > 100 µM
TGI [30]: > 100 µM
TGI [31]: > 100 µM
TGI [32]: > 100 µM
TGI [33]: > 100 µM
TGI [34]: > 100 µM
TGI [35]: > 100 µM
TGI [36]: > 100 µM
TGI [37]: > 100 µM
TGI [38]: > 100 µM
TGI [39]: > 100 µM
TGI [40]: > 100 µM
TGI [41]: > 100 µM
TGI [42]: > 100 µM
TGI [43]: > 100 µM
TGI [44]: > 100 µM
TGI [45]: > 100 µM
TGI [46]: > 100 µM
TGI [47]: > 100 µM
TGI [48]: > 100 µM
TGI [49]: > 100 µM

COc1ccc(-c2c(C#N)c(N)nc3c2COc2ccc(F)cc2-3)cc1OC
GI50 [1]: 15.8 µM
TGI [1]: 56.4 µM
GI50 [2]: 7.99 µM
TGI [2]: 23 µM
GI50 [3]: 14.7 µM
TGI [3]: 39 µM
GI50 [4]: 2290 nM
TGI [4]: 9.84 µM
GI50 [5]: 6.66 µM
TGI [5]: 37.3 µM
GI50 [6]: 5.83 µM
TGI [6]: > 100 µM
GI50 [8]: 2150 nM
TGI [8]: > 100 µM
GI50 [9]: 8.14 µM
TGI [9]: 23.9 µM
GI50 [10]: 6.82 µM
TGI [10]: 63.7 µM
GI50 [11]: 8.44 µM
TGI [11]: 36.8 µM
GI50 [12]: 3.81 µM
TGI [12]: 14.2 µM
GI50 [50]: 2180 nM
TGI [50]: 8.15 µM
GI50 [13]: 6.22 µM
TGI [13]: 20.9 µM
GI50 [14]: 17.1 µM
TGI [14]: > 100 µM
GI50 [15]: 18 µM
TGI [15]: > 100 µM
GI50 [16]: 3.62 µM
TGI [16]: 13.2 µM
GI50 [51]: 7.55 µM
TGI [51]: 38.5 µM
GI50 [17]: 9.03 µM
TGI [17]: > 100 µM
GI50 [18]: 12 µM
TGI [18]: 37.5 µM
GI50 [19]: 18.9 µM
TGI [19]: > 100 µM
GI50 [20]: 10.7 µM
TGI [20]: 37.4 µM
GI50 [52]: 6.61 µM
TGI [52]: > 100 µM
GI50 [21]: 29.9 µM
TGI [21]: > 100 µM
GI50 [22]: 9.21 µM
TGI [22]: > 100 µM
GI50 [23]: 2210 nM
TGI [23]: 6.41 µM
GI50 [24]: 17.6 µM
TGI [24]: > 100 µM
GI50 [25]: 18.9 µM
TGI [25]: 60.5 µM
GI50 [53]: 34.5 µM
TGI [53]: > 100 µM
GI50 [27]: 23.2 µM
TGI [27]: 92.4 µM
GI50 [28]: 53.6 µM
TGI [28]: > 100 µM
GI50 [29]: 5.79 µM
TGI [29]: > 100 µM
GI50 [54]: 1400 nM
TGI [54]: 5.44 µM
GI50 [30]: 10.1 µM
TGI [30]: 26.5 µM
GI50 [31]: 4.91 µM
TGI [31]: 24.8 µM
GI50 [32]: 3.27 µM
TGI [32]: 10.9 µM
GI50 [33]: 8.29 µM
TGI [33]: 52.9 µM
GI50 [34]: 17.4 µM
TGI [34]: 42.2 µM
GI50 [35]: 4.37 µM
TGI [35]: 23.7 µM
GI50 [36]: 2530 nM
TGI [36]: 9.63 µM
GI50 [38]: 3.38 µM
TGI [38]: 11 µM
GI50 [55]: 20.3 µM
TGI [55]: 51.6 µM
GI50 [40]: 8.88 µM
TGI [40]: 65.1 µM
GI50 [41]: 10.3 µM
TGI [41]: 22.7 µM
GI50 [42]: > 100 µM
TGI [42]: > 100 µM
GI50 [43]: 17.2 µM
TGI [43]: 33.6 µM
GI50 [44]: 3.35 µM
TGI [44]: 24 µM
GI50 [46]: 14.1 µM
TGI [46]: 30.5 µM
GI50 [47]: 22 µM
TGI [47]: 98.9 µM
GI50 [48]: 16.9 µM
TGI [48]: 46.2 µM
GI50 [56]: 4.54 µM
TGI [56]: 20 µM
GI50 [49]: 17.3 µM
TGI [49]: 57.9 µM
